Assay results taken from paper PMC6213020, “Identification of a Novel PPAR-γ Agonist through a Scaffold Tuning Approach” (International Journal of Molecular Sciences, 2018).
Where two headings read alike, the source gives them in different places.

Experiments:
[1] = molecular target: T1, PPAR-γ (Homo sapiens, UniProt P37231); assay: TR-FRET LanthaScreen PPAR coactivator recruit assay, PPAR-γ (TRAP220/DRIP2 peptide); assay type: biochemical; conditions: for EC50: TR-FRET coactivator recruit assay
T1 construct: purchased Invitrogen / Thermo Fisher Scientific (assay service)
T1 sequence (P37231 238-503 limits assumed): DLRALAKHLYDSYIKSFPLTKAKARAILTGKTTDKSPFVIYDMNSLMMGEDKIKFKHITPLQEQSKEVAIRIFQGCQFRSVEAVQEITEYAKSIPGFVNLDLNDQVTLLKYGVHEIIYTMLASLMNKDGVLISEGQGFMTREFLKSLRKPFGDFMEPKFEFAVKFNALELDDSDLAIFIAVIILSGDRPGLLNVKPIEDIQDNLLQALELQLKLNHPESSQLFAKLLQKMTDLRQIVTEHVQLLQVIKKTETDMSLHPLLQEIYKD
Source text: Binding of agonist to the PPAR LBD causes a conformational change around helix 12 in the LBD, resulting in higher affinity for the coactivator peptide. When the terbium label on the anti-GST antibody complexed with PPAR is excited at 340 nm, energy is transferred to the fluorescein label on the coactivator peptide and detected as emission at 520 nm. […] Based on the biology of the PPAR-coactivator peptide interaction, this ligand EC50 is a composite value representing the amount of ligand required to bind to receptor, effect a conformational change, and recruit coactivator peptide. Potency of compounds show similar order to their activity (Table 3). […] Ligands such as TZDs show little or no binding to PPAR-δ. Compound 11 and 15 have ortho or meta substituted benzoic acid as an acidic head group. Their acidic head groups might seem to be too large to fit within the narrow PPAR-δ pocket. In contrast, the compound 1 and 2 contains an acetic acid head group that complements the narrow PPAR-δ ligand binding. […] The potency and selectivity of compound 11 could be explained by harmonization of steric effect of acidic head group, length and rigidity of hydrophobic tail, and properly tuned aromatic linker system.
EC50 of compounds were determined by recruitment of transcriptional coactivators using the TR-FRET based Lanthascreen coactivator assays (Invitrogen, Carlsbad, CA, USA). Which was serviced by Thermo Fisher Scientific (Medicon, WI, USA) according to the LanthaScreen TR-FRET coregulator protocol and assay conditions. Coregulator peptide PGC1a, TRAP220/DRIP2 and C33 was used for the coactivator recruit assay of PPAR-α, -γ, and -δ, respectively.

[2] = molecular target: T2, PPAR-α (Homo sapiens, UniProt Q07869); assay: cell-based PPAR transactivation (luciferase) assay, PPAR-α; conditions: 24 h; compounds 10 µM; relative to maximum activation with GW7647 (10 µM); PPAR-Luc in CV-1 cells; read-out: % max PPAR-α
T2 construct: host or cells: CV-1
T2 sequence (Q07869 1-468): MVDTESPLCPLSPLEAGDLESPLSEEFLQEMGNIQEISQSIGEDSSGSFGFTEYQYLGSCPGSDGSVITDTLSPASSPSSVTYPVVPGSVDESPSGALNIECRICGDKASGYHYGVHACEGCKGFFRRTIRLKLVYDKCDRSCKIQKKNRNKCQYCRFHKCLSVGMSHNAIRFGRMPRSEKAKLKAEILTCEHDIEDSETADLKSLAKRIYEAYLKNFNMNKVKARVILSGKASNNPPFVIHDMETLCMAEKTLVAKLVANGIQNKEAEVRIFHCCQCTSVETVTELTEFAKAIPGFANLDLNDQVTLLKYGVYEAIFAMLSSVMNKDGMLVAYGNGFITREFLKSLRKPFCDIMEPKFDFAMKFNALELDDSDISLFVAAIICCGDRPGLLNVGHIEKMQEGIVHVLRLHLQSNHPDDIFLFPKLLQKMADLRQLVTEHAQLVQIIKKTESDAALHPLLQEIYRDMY
Method: The PPAR activities of the synthesized dichloroanilide-linked indole analogs were assessed using a standard cell-based transactivation assay in CV-1 cells. GW7647 [42], pioglitazone, and GW0742 [43] were used as positive controls for PPAR-α, -γ, and -δ, respectively. These three positive controls presented the maximum activation for each PPAR subtype. The activity of the compounds was presented as the activation percentage (%) relative to the maximum values of the positive controls at the indicated concentrations.
Transient transfection and luciferase assay was carried out. CV-1 cells were seeded in 48-well plates at a density of 1.5 × 10^5 cells/well in Dulbecco’s modified Eagle’s medium (DMEM) with containing 10% fetal bovine serum (FBS). The cells were transiently transfected with plasmid mixtures containing PPAR-α/γ expression vector and tk-PPRE-luciferase (Luc) vector for 6 h and then treated with the samples for 24 h. HEK293t cells were seeded in a 60-mm dish at a density of 1.5 × 10^6 cells/dish. After transfection with the plasmid mixtures containing PPAR-δ expression vector and Luc vector for 6 h, the cells were transferred to a 96-well plate and treated with the samples. To normalize the transfection efficiency, a β-galactosidase plasmid was cotransfected. The luciferase activity in the cell lysates was measured using a luciferase assay system (Promega Corp., Madison, WI, USA), and the β-galactosidase activity was determined by measuring the absorbance at 410 nm using an ELISA plate reader. The data were expressed as the relative luciferase activity divided by the β-galactosidase activity. All constructs were kindly gifted by Dr. Ronald M. Evans at The Salk Institute (La Jolla, CA, USA).

In the case of `O=C(COc1ccc2c(ccn2Cc2ccccc2C(=O)O)c1)Nc1ccc(Cl)cc1Cl` [Compound 12, 2-((5-(2-((2,4-Dichlorophenyl)amino)-2-oxoethoxy)-1H-indol-1-yl)methyl)benzoic acid], the EC50 ([1]; read-out: EC50 PPAR-γ) is reported as 1.96 nM, the “selectivity for PPAR-γ to PPAR-α” value ([1]; from coactivator recruit EC50) is reported as 1,970 fold and the “selectivity for PPAR-γ to PPAR-δ” value ([1]; from coactivator recruit EC50) is reported as 16,600 fold. The activation at 10 µM [2] was 105.1 ± 0.41%.

`O=C(COc1ccc2ccn(Cc3ccccc3C(=O)O)c2c1)Nc1ccc(Cl)cc1Cl` [Compound 13, 2-((6-(2-((2,4-Dichlorophenyl)amino)-2-oxoethoxy)-1H-indol-1-yl)methyl)benzoic acid] gave an EC50 ([1]; read-out: EC50 PPAR-γ) of 571 nM and an activation at 10 µM [2] of 51.84 ± 0.25%.

For `O=C(COc1ccc2c(c1)c(Cc1ccccc1)cn2Cc1ccccc1C(=O)O)Nc1ccc(Cl)cc1Cl` [Compound 18, 2-((3-Benzyl-5-(2-((2,4-dichlorophenyl)amino)-2-oxoethoxy)-1H-indol-1-yl)methyl)benzoic acid], the EC50 ([1]; read-out: EC50 PPAR-γ) was > 11100 nM and the activation at 10 µM [2] was 23.79 ± 0.11%.

`O=C(COc1ccc2ccn(Cc3cccc(C(=O)O)c3)c2c1)Nc1ccc(Cl)cc1Cl` [Compound 15, 3-((6-(2-((2,4-Dichlorophenyl)amino)-2-oxoethoxy)-1H-indol-1-yl)methyl)benzoic acid] was tested, and the EC50 ([1]; read-out: EC50 PPAR-γ) was 32.6 nM, the EC50 ([1]; read-out: EC50 to PPAR-γ) was 32.3 nM and the activation at 10 µM [2] was 78.15 ± 0.04%.
